Seven compounds from ChEMBL document CHEMBL5465560, “Selectivity Literature for EUbOPEN Chemogenomic Library” (2024) can be followed below.

Assay [1] addresses Vascular endothelial growth factor receptor 3 (Homo sapiens, UniProt P35916). Briefly: Selectivity interaction (Ambit KINOMEscan and KiNATiv profiling in Jurkat cells) EUB0000090b FLT4. It counts as cell-based. The conditions noted are these: at 1 µM.
Assay [2] concerns the target T1, Serine/threonine-protein kinase Nek2 (Homo sapiens) (UniProt P51955).
T1 sequence (whole entry): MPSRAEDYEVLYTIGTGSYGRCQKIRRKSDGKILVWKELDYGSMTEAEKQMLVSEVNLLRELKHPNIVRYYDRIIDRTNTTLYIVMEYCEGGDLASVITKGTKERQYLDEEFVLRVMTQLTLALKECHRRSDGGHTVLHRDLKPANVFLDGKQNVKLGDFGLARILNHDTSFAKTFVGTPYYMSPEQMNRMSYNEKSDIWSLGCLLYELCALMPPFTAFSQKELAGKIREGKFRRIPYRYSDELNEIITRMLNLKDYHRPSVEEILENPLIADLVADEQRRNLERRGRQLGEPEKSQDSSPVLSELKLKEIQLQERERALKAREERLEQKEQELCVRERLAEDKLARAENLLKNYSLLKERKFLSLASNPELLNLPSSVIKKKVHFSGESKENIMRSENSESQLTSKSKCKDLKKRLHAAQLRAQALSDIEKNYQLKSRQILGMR
Briefly: Selectivity interaction (Ambit KINOMEscan and KiNATiv profiling in Jurkat cells) EUB0000090b NEK2. The conditions noted are these: at 1 µM. It counts as cell-based.

A further assay addresses Insulin receptor (Homo sapiens, UniProt P06213). Put plainly: Selectivity interaction (SelectScreen profiling (Invitrogen)) EUB0000607a INSR. The conditions noted are these: at 2 µM.
Assay [3] deals with Cyclin-dependent kinase 8 (Homo sapiens, UniProt P49336). Conditions: at 10 µM.
Cyclin-dependent kinase 8, sequence (P49336 whole entry): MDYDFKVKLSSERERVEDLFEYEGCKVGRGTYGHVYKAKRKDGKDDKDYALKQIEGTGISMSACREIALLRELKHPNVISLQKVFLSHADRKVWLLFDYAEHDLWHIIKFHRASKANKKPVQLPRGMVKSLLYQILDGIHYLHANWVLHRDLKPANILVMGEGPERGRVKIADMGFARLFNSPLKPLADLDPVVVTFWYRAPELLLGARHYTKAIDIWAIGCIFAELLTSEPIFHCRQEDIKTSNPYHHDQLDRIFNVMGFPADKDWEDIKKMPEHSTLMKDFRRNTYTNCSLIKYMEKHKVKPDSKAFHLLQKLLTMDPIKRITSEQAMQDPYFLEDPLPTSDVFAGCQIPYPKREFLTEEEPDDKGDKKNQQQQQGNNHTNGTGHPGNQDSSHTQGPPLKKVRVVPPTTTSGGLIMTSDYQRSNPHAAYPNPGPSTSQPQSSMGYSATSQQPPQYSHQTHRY
The target of assay [4] is Protein-tyrosine kinase 6 (Homo sapiens, UniProt Q13882). Put plainly: Selectivity interaction (KinaseProfiler screening (Millipore)) EUB0000601a PTK6. The conditions noted are these: at 3 µM.
Protein-tyrosine kinase 6, sequence (Q13882 whole entry, looked up): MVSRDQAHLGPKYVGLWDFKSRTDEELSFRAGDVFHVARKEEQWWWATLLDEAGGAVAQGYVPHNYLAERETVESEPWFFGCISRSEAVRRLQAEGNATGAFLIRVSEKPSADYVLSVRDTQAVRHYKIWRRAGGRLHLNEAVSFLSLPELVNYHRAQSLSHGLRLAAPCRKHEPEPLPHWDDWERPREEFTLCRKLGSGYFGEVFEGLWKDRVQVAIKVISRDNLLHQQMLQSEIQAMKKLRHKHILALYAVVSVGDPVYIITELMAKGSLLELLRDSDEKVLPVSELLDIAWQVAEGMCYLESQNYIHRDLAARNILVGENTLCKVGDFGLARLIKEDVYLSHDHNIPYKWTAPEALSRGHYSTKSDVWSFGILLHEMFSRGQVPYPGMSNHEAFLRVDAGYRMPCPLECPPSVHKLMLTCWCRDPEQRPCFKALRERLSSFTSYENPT
The target in assay [5] is T2, Serine/threonine-protein kinase D2 (Homo sapiens) (UniProt Q9BZL6).
T2 sequence (whole entry): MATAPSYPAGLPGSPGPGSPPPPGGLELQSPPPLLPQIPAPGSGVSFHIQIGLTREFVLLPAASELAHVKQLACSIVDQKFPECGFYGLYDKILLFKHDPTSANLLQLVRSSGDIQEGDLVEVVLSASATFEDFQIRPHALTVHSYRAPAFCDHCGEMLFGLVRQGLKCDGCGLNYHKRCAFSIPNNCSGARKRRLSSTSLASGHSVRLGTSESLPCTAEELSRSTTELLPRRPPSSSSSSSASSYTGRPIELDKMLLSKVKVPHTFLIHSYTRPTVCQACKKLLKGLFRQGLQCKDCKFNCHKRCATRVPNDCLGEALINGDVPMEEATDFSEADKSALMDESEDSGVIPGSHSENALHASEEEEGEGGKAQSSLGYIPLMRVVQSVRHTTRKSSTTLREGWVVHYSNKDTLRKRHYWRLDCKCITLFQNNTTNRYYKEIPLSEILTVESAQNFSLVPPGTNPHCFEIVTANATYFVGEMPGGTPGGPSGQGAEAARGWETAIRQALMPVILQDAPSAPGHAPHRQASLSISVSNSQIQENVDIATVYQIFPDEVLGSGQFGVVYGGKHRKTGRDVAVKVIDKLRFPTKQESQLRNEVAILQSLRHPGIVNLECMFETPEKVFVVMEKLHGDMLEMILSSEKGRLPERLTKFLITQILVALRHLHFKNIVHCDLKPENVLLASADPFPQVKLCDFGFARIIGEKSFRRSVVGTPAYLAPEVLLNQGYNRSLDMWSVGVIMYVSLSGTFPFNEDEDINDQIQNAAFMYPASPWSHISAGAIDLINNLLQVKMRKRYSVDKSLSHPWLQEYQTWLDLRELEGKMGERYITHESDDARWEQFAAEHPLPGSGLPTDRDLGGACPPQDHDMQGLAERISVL
Put plainly: Selectivity interaction (ActivX KiNativ screen (kinase selectivity in THP-1 cell lysates)) EUB0000639a PRKD2. It counts as subcellular. Conditions: lysate, at 0.01 µM.

Assay [6] concerns the target T3, Testis-specific serine/threonine-protein kinase 3 (Homo sapiens) (UniProt Q96PN8).
T3 sequence (whole entry): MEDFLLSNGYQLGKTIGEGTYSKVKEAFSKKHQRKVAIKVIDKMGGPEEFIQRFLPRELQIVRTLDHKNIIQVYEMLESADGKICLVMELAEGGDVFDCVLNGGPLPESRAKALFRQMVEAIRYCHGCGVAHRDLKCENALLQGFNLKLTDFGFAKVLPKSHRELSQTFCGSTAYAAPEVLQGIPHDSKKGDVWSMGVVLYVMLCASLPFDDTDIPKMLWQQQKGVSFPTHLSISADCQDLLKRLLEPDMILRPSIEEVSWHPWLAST
Briefly: Selectivity interaction (Kinase panel (Invitrogen)) EUB0000639a TSSK3. Conditions: at 200 nM.

Assay [7] has as its target Cyclin-dependent kinase 15 (Homo sapiens) (UniProt Q96Q40). Briefly: Selectivity interaction (KinomeScan (DiscoverX)) EUB0001049a CDK15. Conditions: at 1 µM.
Assay [8] addresses Cyclin-dependent kinase 5/CDK5 activator 1 (Homo sapiens) (UniProt Q00535+Q15078). Briefly: Selectivity interaction (ProQinase) EUB0000171b CDK5. It counts as protein-complex assay.

Cyclin-dependent kinase 5/CDK5 activator 1 (Homo sapiens), sequence (Q00535 whole entry): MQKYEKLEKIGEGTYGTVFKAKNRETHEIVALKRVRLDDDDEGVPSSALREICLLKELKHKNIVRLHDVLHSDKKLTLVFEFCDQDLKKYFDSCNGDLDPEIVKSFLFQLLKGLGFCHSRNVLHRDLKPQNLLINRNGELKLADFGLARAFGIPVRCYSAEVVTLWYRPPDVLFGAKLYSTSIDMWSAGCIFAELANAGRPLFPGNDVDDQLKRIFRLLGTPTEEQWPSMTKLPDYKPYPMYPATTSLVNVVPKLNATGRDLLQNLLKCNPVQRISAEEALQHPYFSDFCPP
Cyclin-dependent kinase 5/CDK5 activator 1 (Homo sapiens), sequence (Q15078 99-307 partner limits assumed): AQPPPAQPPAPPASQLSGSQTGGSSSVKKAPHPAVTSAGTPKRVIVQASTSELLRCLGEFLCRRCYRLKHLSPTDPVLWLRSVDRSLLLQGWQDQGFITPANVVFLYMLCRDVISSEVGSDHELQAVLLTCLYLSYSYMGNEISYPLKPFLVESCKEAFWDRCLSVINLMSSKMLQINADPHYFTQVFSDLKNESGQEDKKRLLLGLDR
Vascular endothelial growth factor receptor 3, sequence (P35916 whole entry): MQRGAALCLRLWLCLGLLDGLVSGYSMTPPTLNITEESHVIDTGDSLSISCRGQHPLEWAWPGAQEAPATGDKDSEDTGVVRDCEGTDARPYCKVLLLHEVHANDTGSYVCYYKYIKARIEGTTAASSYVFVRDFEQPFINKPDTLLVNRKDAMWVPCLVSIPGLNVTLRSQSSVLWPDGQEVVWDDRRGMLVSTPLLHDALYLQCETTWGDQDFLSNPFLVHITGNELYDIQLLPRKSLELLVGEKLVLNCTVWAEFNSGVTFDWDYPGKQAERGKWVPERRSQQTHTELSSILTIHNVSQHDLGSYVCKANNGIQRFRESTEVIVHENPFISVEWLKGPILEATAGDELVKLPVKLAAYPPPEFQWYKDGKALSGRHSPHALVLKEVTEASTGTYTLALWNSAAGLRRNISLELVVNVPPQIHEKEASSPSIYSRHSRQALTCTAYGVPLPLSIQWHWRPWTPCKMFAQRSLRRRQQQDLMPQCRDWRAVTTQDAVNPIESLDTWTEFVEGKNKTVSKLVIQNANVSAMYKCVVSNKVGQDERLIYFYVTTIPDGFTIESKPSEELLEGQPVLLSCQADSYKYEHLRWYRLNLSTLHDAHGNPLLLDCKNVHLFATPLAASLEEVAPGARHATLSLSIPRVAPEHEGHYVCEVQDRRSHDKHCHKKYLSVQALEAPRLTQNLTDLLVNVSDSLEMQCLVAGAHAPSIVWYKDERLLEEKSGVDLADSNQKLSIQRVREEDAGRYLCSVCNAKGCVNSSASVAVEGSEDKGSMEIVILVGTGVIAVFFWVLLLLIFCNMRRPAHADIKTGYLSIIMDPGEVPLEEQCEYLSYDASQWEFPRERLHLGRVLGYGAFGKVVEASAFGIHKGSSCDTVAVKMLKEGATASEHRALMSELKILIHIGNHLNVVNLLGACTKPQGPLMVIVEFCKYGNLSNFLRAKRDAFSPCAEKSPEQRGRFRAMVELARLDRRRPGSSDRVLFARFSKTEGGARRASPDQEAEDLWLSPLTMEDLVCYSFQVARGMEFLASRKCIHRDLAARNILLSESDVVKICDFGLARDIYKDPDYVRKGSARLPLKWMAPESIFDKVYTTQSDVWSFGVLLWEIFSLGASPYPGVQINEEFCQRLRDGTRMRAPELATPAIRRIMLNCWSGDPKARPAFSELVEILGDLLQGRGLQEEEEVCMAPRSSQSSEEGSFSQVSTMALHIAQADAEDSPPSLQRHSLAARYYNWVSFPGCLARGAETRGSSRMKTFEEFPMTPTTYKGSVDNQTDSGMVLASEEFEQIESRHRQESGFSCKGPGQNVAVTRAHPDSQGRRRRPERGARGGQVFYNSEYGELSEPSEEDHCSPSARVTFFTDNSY
Cyclin-dependent kinase 15 (Homo sapiens), sequence (Q96Q40 whole entry): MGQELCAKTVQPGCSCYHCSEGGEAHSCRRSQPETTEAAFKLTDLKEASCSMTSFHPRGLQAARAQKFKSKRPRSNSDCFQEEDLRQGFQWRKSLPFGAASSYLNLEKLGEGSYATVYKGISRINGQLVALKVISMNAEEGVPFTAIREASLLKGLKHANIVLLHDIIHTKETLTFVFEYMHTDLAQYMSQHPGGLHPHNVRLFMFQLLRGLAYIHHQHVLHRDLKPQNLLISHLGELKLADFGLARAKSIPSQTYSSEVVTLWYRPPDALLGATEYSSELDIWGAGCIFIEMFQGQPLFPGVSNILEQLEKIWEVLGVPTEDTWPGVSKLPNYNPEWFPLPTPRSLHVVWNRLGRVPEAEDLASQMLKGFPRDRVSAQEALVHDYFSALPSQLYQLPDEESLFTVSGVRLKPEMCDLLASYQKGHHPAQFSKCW
Insulin receptor, sequence (P06213 28-758 limits assumed): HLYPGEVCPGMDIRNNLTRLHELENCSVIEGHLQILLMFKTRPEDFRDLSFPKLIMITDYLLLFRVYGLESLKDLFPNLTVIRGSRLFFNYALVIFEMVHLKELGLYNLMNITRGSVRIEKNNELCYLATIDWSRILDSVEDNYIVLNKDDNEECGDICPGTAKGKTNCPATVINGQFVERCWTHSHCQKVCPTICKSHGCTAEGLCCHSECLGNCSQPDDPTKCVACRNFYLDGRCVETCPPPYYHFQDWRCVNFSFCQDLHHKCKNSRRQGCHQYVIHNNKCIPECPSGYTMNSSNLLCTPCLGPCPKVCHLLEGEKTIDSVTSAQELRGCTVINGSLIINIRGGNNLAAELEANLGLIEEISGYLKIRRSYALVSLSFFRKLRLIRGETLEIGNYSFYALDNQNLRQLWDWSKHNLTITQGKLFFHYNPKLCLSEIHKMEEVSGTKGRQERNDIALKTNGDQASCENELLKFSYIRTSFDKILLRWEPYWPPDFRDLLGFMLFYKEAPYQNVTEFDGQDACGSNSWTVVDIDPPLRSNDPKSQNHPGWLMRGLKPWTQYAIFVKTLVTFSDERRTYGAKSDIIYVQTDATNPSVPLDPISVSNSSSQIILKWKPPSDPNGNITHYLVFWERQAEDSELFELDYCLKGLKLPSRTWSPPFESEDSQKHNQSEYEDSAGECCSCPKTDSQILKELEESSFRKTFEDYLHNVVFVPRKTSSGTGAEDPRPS
Insulin receptor, sequence (P06213 763-1382 limits assumed): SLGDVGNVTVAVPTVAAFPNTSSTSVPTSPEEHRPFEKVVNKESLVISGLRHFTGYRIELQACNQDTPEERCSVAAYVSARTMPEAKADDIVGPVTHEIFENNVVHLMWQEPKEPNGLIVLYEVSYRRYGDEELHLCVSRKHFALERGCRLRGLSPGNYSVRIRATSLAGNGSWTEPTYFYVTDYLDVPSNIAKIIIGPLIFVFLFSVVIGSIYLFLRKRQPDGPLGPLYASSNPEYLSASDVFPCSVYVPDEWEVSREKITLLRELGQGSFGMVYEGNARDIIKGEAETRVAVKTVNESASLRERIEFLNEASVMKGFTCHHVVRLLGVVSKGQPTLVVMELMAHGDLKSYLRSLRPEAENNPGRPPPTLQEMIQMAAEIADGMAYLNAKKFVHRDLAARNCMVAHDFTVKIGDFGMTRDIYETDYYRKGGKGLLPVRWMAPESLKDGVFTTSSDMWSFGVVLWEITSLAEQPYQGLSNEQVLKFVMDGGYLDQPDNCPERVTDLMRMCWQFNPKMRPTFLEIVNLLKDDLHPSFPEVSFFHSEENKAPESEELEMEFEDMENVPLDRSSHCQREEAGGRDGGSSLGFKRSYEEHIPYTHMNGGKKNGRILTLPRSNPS

Take `CN(C)C/C=C/C(=O)Nc1ccc(C(=O)N2CCCC(Nc3ncc(Cl)c(-c4c[nH]c5ccccc45)n3)C2)cc1` (stereo not given): the % of control amounted to 70% in [1] and 97% in assay [2]. With `CNC(=O)Nc1ccc(-c2nc(N3CC4CCC(C3)O4)c3cnn(C4CCC5(CC4)OCCO5)c3n2)cc1`, the % of inhibition at Insulin receptor is 4%. In assay [3], `Cc1cc([C@@H](C)Nc2ccccc2C(=O)O)c2nc(N3CCOCC3)cc(=O)n2c1` [AZD-6482] came in with a % of control of 79%. For `CCc1cc(Nc2nccc(-c3c(-c4ccc(OC)c(C(=O)Nc5c(F)cccc5F)c4)nc4ccccn34)n2)c(OC)cc1N1CCC(N2CCN(S(C)(=O)=O)CC2)CC1`, the % of inhibition in assay [4] was 38%. `CC[C@@H]1[C@H](F)C(=O)N[C@@H]1COc1nccc2cc(C(N)=O)c(OC)cc12` [ZIMLOVISERTIB]: the % of inhibition in [5] was -7.2%; in assay [6], 16.3%. For `COc1cc(Nc2nc(C)cc(-c3cnn4nc(OC)ccc34)n2)cc(C(F)(F)F)c1`, the % of control in assay [7] is 90%. `C=CC(=O)Nc1cccc(C(=O)Nc2ccc(Nc3cc(-c4[nH]c(SC)nc4C)ccn3)cc2)c1`: the % of control in assay [8] (at 1 µM) was 77%; in assay [8] (at 5 µM) it was 54%.
